Where two headings read alike, the source gives them in different places.
Experiments:
[1] = system: AGS cell lines (human gastric adenocarcinoma); experiment: MTT reduction cytotoxicity assay; type: cell-based; conditions: for mean percentage of viable cells ± SD: 24 h
Procedure: (§1) Cell cultures: The L929 mouse fibroblasts and human gastric adenocarcinoma cell line AGS were used for in vitro cytotoxicity assays. The cells were maintained under standard conditions (37 ^∘ C, 5% CO 2 ) in 25 cm^2 tissue culture flasks in RPMI-1640 medium supplemented with 10% fetal bovine serum (FBS) and antibiotics: 100 U/mL penicillin and 100 μ g/mL streptomycin. The cell suspension containing 10 ^8 cells in 1 mL, was obtained by treatment of confluent monolayers with 0.25% trypsin solution, washed and subcultured. Cell cultures were supplemented with medium to maintain them in log phase growth. The viability of the cells was assessed by exclusion of trypan blue dye.
(§2) Measurements of cellular metabolic activity and global growth inhibition: L929 cells were seeded into 96-well plates (2 × 10 ^5 cells/well) for 24 h, at 37 ^∘ C, 5% CO2 . Tested compounds 5a–c, 6a–c, 7a–c, 8a–c, 9b,c, 10b,c, 12a and 13a were diluted serially in RPMI-1640 medium in concentrations of 50, 20, 10, 5, 0.5 and 0.1 μ g/mL, added to the cells (100 μ L/well), and incubated under standard conditions for 24 h. The potential harmful effect of lactones on L929 and AGS cells was assessed by the ability of the cells to reduce 3-(4,5-dimethylthiazol-2-yl)-2,5-diphenyltetrazolium bromide (MTT) to formazan. The solution of MTT (5 mg/mL in PBS), was added to each well and the plates were incubated for 4h at 37 ^∘ C. Formazan crystals were dissolved with acidic isopropanol (0.1 M HCl in absolute isopropanol) and the plates were read in a plate reader (Victor 2) at 570 nm. The percentage of MTT reduction was calculated by comparing the absorbance of treated cells to that of untreated control cells. Results are expressed as the mean percentage of viable cells ± standard deviation (SD) of four independent experiments. Statistical significance was accepted at a p-value < 0.05.

[2] = system: L929 cell lines (mouse fibroblasts); experiment: MTT reduction cytotoxicity assay; type: cell-based; conditions: 24 h
Procedure: as §1, §2

[3] = Observation of purified γ-iodo-δ-lactone isomers (decomposition, translactonization); type: physicochemical; conditions: purified trans,trans and cis,trans γ-iodo-δ-lactones; residue an equimolar mixture of trans and cis hydroxylactones
Procedure: Iodolactonization of 4a–c acids was carried out with I2/KI and NaHCO3 in a water/diethyl ether mixture. […] The yield of reactions was in the range of 69–85%. The reaction conditions prevented the direct synthesis of these compounds because the reaction was carried out in an alkaline solution, whereas hydroxylactonization requires an acidic environment. […] and predominantly formed in this reaction. The excess of trans-isomer is usually observed in the synthesis of γ -lactones. However, the reaction initially gave δ -iodo- γ -lactones, which, through a translactonization reaction, were transformed into the final products–hydroxylactones 12a and 13a. This was confirmed by observations of purified isomers trans,trans and cis,trans γ -iodo- δ -lactones 9b and 10b, and 9c and 10c. […] The carbocation was stabilized by the electron lone pairs of the oxygen atom present in the water molecule. The preparation of hydroxylactones from iodolactones has been described thus far only for biotransformation experiments. The synthesis described here allows obtaining these compounds without microorganisms.

[4] = system: Staphylococcus aureus ATCC 65389; experiment: Bactericidal activity, CFU counting method; type: cell-based; conditions: S. aureus ATCC 65389; 18 h at 37 °C; Control 21.36, Control with DMSO 20.85
Procedure: (§3) The bacterial cultures: Escherichia coli ATCC 8739 and Staphylococcus aureus ATCC 65389 were grown on Luria–Bertani Agar for 18 h at 37 ^∘ C. The strain suspension was prepared in 0.85% saline, with an optical density equivalent to a 0.5 McFarland standard. Next, the following mixtures were prepared: 180 μ L of sterile enriched broth (BTL), 10 μ L of the bacterial suspension and 10 μ L of the tested compound (range 0.1–50 μ g/mL) solubilized in DMSO. As a negative control, only DMSO was added. As a sterility control, 180 μ L of BTL and 20 μ L saline were used. The microtiter plate was incubated at 37 ^∘ C for 18 h. The colony forming unit (CFU) method was used to evaluate the microbial population. The experiment was repeated three times. Gentamicin was used as the reference antibiotic.

[5] = system: Escherichia coli ATCC 8739; experiment: Bactericidal activity, CFU counting method; type: cell-based; conditions: E. coli ATCC 8739; for Number of CFU/mL (× 10^7): 18 h at 37 °C, Control 9.47, Control with DMSO 9.30; for less CFU/mL (reduction of the number of CFU/mL): versus control
Procedure: as §3

[6] = MTT reduction cytotoxicity assay; type: cell-based, human; conditions: human, AGS cells (human gastric adenocarcinoma), 24 h, read-out: mean percentage of viable cells ± SD
Procedure: as §1, §2

[7] = MTT reduction cytotoxicity assay; type: cell-based, mouse; conditions: mouse, L929 cells (mouse fibroblasts), read-out: mean percentage of viable cells ± SD
Procedure: as §1, §2

gastric cancer AGS cells = system: gastric cancer AGS cells; design: method as in PMID 23792648; conditions: reference anticancer drug; cited from earlier work

Compound | IC50 [1] | mean percentage of viable cells ± SD ([1]; 0.1 μg/mL) | mean percentage of viable cells ± SD ([1]; 0.5 μg/mL) | mean percentage of viable cells ± SD ([1]; 5 μg/mL) | mean percentage of viable cells ± SD ([1]; 10 μg/mL) | mean percentage of viable cells ± SD ([1]; 20 μg/mL) | mean percentage of viable cells ± SD ([1]; 50 μg/mL) | mean percentage of viable cells ± SD ([2]; 0.1 μg/mL) | mean percentage of viable cells ± SD ([2]; 0.5 μg/mL) | mean percentage of viable cells ± SD ([2]; 5 μg/mL) | mean percentage of viable cells ± SD ([2]; 10 μg/mL) | mean percentage of viable cells ± SD ([2]; 20 μg/mL) | mean percentage of viable cells ± SD ([2]; 50 μg/mL) | stability of purified isomer (in words) [3] | Number of CFU/mL (× 10^7) [4] | Number of CFU/mL (× 10^7) [5] | less CFU/mL (reduction of the number of CFU/mL) [5] | further results
CC1CC(=O)OC(c2ccccc2)C1I (mixture of isomers) [10b, Cis,trans-tetrahydro-5-iodo-4-methyl-6-phenylpyran-2-one] | 1800 nM | 58 ± 0.07% | 43 ± 0.02% | 37 ± 0.03% | 16 ± 0.09% | 14 ± 0.08% | 10 ± 0.06% | 25 ± 0.08% | 20 ± 0.03% | 15 ± 0.08% | 7 ± 0.15% | 5 ± 0.06% | 1 ± 0.02% | rapid decomposition with release of iodine | 5.92 × 10^7 CFU/mL | 7.65 × 10^7 CFU/mL | – | –
CC1CC(=O)OC(c2ccc(F)cc2)C1I (mixture of isomers) [10c, Cis,trans-6-(4-fluorophenyl)-tetrahydro-5-iodo-4-methylpyran-2-one] | 1700 nM | 38 ± 0.06% | 23 ± 0.15% | 20 ± 0.02% | 13 ± 0.03% | 10 ± 0.07% | 8 ± 0.03% | 22 ± 0.05% | 18 ± 0.03% | 12 ± 0.07% | 6 ± 0.09% | 2 ± 0.15% | 2 ± 0.05% | rapid decomposition with release of iodine | 6.30 × 10^7 CFU/mL | 2.87 × 10^7 CFU/mL | 70–78% | –
CC1CC(=O)OC(c2ccccc2)C1I (stereo not drawn) [9b, Trans,trans-tetrahydro-5-iodo-4-methyl-6-phenylpyran-2-one] | – | – | – | – | – | – | – | – | – | – | – | – | – | rapid decomposition with release of iodine | 21.25 × 10^7 CFU/mL | 9.02 × 10^7 CFU/mL | – | IC50 ([1]; Homo sapiens): 1400 nM; viability at 24 h, 0.1 μg/mL ([6]; 0.1 μg/mL): 54 ± 0.15%; viability at 24 h, 0.5 μg/mL ([6]; 0.5 μg/mL): 52 ± 0.15%; viability at 24 h, 5 μg/mL ([6]; 5 μg/mL): 43 ± 0.12%; viability at 24 h, 10 μg/mL ([6]; 10 μg/mL): 26 ± 0.03%; viability at 24 h, 20 μg/mL ([6]; 20 μg/mL): 15 ± 0.06%; viability at 24 h, 50 μg/mL ([6]; 50 μg/mL): 8 ± 0.09%; viability at 24 h, 0.1 μg/mL ([7]; 0.1 μg/mL): 23 ± 0.03%; viability at 24 h, 0.5 μg/mL ([7]; 0.5 μg/mL): 18 ± 0.03%; viability at 24 h, 5 μg/mL ([7]; 5 μg/mL): 13 ± 0.07%; viability at 24 h, 10 μg/mL ([7]; 10 μg/mL): 11 ± 0.06%; viability at 24 h, 20 μg/mL ([7]; 20 μg/mL): 4 ± 0.15%; viability at 24 h, 50 μg/mL ([7]; 50 μg/mL): 1 ± 0.12%; melting point: 107 to 108 °C
CC1CC(=O)OC(c2ccc(F)cc2)C1I (stereo not drawn) [9c, Trans,trans-6-(4-fluorophenyl)-tetrahydro-5-iodo-4-methylpyran-2-one] | 1400 nM | 51 ± 0.10% | 43 ± 0.15% | 35 ± 0.10% | 23 ± 0.02% | 18 ± 0.06% | 15 ± 0.03% | 15 ± 0.03% | 12 ± 0.08% | 9 ± 0.06% | 6 ± 0.03% | 3 ± 0.09% | 1 ± 0.05% | rapid decomposition with release of iodine | 9.76 × 10^7 CFU/mL | 2.43 × 10^7 CFU/mL | 70–78% | –
COc1cccc2c1C(=O)c1c(O)c3c(c(O)c1C2=O)C[C@@](O)(C(=O)CO)C[C@@H]3O[C@H]1C[C@H](N)[C@H](O)[C@H](C)O1 [doxorubicin] | – | – | – | – | – | – | – | – | – | – | – | – | – | – | – | – | – | IC50 (gastric cancer AGS cells): 25 nM

Source: PMC6572184, “New γ-Halo-δ-lactones and δ-Hydroxy-γ-lactones with Strong Cytotoxic Activity” (Molecules, 2019)
